US10479808B1, “Bisphosphonate-based coordination complexes as enhanced pharmaceutical formulations and method of preparing the same” (University of Puerto Rico, priority 2018, dated 2019)
“Also recorded” adds a separate entry of the source.

Experiments:
Type in all cases: physicochemical
[1] = Dissolution profile in FaSSGF (pH 1.60), ALEN-Cu complexation, UV-Vis; conditions: for order of structural stability of the complexes: FaSSGF pH 1.60, from dissolution profiles
[2] = Dissolution profile in PBS (pH 7.40), ALEN-Cu complexation, UV-Vis; conditions: for order of structural stability of the complexes: PBS pH 7.40, from dissolution profiles
[3] = Thermal stability by thermal gravimetric analysis (TGA) under N2
Description: Thermographs were recorded in a TGA Q500 (TA Instruments Inc.). Thermograph of the BP and pBioCCs were collected using a temperature range of 30-700° C. at 5° C./min under a N2 gas purge. In all cases, ˜10 mg of powder sample was thermally treated. Data was analyzed with TA Universal Analysis software version 4.3A.
It was expected that the thermograph of each pBioCCs consists of at least two mayor decomposition profiles one at lower temperature representing the loss of coordinated or lattice water molecules, and another at higher temperature which accounts for the thermal combustion of the organic moiety, the BP ligand, in this case ALEN. A third decomposition event might be observed above 350° C., due to the thermal degradation of the metal/metal oxide.

SMILES	order of structural stability of the complexes [1]	order of structural stability of the complexes [2]	thermal stability (in words) [3]	time to reach maximum release ([1]; FaSSGF pH 1.60, 37 °C) [s]	time to reach maximum release ([2]; PBS pH 7.40, 37 °C) [min]
NCCCC(O)(P(=O)([O-])O)P(=O)([O-])O.O.[Zn+2] [ALEN-Zn form I]	ALEN-Ca form I<ALEN-Ca form II<ALEN-Zn form I<ALEN-Mg<ALEN-Zn form II	ALEN-Mg<ALEN-Ca form I<ALEN-Ca form II<ALEN-Zn form I<ALEN-Zn form II	high thermal stability		
NCCCC(O)(P(=O)([O-])O)P(=O)([O-])O.O.[Ca+2] [ALEN-Ca form I]	less stable; also recorded: ALEN-Ca form I<ALEN-Ca form II<ALEN-Zn form I<ALEN-Mg<ALEN-Zn form II	ALEN-Mg<ALEN-Ca form I<ALEN-Ca form II<ALEN-Zn form I<ALEN-Zn form II	high thermal stability		
NCCCC(O)(P(=O)(O)O)P(=O)(O)O [ALEN, Alendronate sodium trihydrate, reference compound]				10	10
